Reference: publication PMC7614683, “A small molecule PI3Kα activator for cardioprotection and neuroregeneration” (Nature, 2023)
Where two headings read alike, the source gives them in different places.

Assays:
Assay in all cases: SelectScreen Z-LYTE kinase activity assay (SI Table 6)
Type in all cases: biochemical
[1] = target: protein kinases of the Z-LYTE panel (Homo sapiens, UniProt P00533)
How it was run: (§1)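 Compound 1938 counterscreened at 1 μM against 133 protein and 7 lipid kinases in the SelectScreen panel, using Adapta, LanthaScreen binding and Z-LYTE formats as applicable.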

[2] = target: protein kinases of the Z-LYTE panel (Homo sapiens, UniProt P78527)
How it was run: as §1

[3] = target: T1, protein kinases of the Z-LYTE panel (Homo sapiens, UniProt O00141)
T1 sequence (O00141 1-431): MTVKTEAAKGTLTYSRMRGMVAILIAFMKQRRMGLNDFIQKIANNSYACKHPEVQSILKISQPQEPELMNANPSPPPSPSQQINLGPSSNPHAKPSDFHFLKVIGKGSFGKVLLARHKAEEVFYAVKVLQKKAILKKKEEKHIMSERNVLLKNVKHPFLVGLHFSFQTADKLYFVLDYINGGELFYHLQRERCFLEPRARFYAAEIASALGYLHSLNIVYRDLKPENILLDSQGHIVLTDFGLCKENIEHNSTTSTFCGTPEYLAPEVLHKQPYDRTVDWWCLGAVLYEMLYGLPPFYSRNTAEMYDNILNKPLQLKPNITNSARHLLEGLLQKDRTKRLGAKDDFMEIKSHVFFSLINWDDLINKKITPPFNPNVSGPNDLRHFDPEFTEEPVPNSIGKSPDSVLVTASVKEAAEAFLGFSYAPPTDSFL
How it was run: as §1

[4] = target: T2, protein kinases of the Z-LYTE panel (Homo sapiens, UniProt O14757)
T2 sequence (O14757 1-476): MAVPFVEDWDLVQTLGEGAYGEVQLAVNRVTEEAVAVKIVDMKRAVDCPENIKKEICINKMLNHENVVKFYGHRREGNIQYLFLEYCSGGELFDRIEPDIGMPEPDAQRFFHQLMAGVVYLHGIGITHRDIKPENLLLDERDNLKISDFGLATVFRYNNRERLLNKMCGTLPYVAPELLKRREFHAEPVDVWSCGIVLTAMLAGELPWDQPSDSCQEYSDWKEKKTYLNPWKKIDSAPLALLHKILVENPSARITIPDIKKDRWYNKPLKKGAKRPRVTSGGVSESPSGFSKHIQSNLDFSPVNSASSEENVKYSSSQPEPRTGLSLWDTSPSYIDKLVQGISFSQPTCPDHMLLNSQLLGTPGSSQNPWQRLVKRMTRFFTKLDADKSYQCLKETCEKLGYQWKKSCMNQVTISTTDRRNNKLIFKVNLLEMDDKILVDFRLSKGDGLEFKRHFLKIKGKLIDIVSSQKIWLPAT
How it was run: as §1

[5] = target: protein kinases of the Z-LYTE panel (Homo sapiens, UniProt Q9P1W9)
How it was run: as §1

[6] = target: protein kinases of the Z-LYTE panel (Homo sapiens, UniProt P42345)
How it was run: as §1

[7] = target: protein kinases of the Z-LYTE panel (Homo sapiens, UniProt P00519)
How it was run: as §1

[8] = target: protein kinases of the Z-LYTE panel (Homo sapiens, UniProt P16591)
How it was run: as §1

[9] = target: protein kinases of the Z-LYTE panel (Homo sapiens, UniProt Q96SB4)
How it was run: as §1

[10] = target: protein kinases of the Z-LYTE panel (Homo sapiens, UniProt P31751)
How it was run: as §1

[11] = target: protein kinases of the Z-LYTE panel (Homo sapiens, UniProt Q8N4C8)
How it was run: as §1

Sequence of protein kinases of the Z-LYTE panel (Homo sapiens, UniProt Q96SB4) (Q96SB4 whole entry): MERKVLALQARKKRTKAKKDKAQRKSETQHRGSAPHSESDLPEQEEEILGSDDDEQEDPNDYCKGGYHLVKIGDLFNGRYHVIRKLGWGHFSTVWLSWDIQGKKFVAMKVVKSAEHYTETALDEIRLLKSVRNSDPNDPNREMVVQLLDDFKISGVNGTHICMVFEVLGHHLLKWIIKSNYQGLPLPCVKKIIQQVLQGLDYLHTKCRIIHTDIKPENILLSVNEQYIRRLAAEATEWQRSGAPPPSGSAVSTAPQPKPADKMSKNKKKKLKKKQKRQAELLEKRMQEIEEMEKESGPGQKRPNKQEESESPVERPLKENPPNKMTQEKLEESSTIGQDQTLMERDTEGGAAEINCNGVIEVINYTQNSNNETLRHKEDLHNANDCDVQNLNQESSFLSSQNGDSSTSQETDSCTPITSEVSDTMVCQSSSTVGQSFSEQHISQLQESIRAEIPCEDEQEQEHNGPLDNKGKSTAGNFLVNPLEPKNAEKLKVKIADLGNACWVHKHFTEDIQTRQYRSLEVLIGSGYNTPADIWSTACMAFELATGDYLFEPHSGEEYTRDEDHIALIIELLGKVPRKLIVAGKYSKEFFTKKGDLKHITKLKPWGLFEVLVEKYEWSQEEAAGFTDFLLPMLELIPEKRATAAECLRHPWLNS
Sequence of protein kinases of the Z-LYTE panel (Homo sapiens, UniProt P00519) (P00519 whole entry): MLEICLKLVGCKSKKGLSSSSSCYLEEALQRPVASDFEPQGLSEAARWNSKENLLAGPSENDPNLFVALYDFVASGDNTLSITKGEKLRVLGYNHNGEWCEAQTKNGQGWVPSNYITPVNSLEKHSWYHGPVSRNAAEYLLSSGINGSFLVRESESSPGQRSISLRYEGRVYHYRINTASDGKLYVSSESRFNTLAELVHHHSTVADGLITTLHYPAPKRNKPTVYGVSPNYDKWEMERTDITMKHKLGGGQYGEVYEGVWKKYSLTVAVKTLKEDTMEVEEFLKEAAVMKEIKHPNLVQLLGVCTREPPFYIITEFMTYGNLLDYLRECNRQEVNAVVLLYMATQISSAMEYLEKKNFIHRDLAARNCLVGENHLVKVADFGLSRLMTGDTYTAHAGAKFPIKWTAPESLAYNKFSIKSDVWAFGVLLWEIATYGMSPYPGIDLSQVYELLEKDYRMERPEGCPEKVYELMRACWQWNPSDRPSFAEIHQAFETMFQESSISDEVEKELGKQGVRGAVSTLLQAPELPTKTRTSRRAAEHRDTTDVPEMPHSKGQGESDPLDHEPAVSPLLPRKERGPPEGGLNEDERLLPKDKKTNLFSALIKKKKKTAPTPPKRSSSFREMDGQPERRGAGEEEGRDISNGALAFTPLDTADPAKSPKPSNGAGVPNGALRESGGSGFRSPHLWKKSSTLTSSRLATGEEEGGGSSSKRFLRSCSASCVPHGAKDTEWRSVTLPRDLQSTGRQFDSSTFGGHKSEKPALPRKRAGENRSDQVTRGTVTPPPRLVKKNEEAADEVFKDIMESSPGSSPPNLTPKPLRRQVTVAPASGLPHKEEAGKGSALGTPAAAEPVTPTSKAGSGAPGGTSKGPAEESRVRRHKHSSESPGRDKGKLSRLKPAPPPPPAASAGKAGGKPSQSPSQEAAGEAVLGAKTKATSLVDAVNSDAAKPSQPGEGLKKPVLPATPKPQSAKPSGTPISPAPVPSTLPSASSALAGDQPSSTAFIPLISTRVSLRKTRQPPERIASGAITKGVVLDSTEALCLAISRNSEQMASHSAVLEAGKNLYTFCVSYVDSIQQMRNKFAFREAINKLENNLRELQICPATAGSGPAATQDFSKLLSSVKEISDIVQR
Sequence of protein kinases of the Z-LYTE panel (Homo sapiens, UniProt P16591) (P16591 whole entry): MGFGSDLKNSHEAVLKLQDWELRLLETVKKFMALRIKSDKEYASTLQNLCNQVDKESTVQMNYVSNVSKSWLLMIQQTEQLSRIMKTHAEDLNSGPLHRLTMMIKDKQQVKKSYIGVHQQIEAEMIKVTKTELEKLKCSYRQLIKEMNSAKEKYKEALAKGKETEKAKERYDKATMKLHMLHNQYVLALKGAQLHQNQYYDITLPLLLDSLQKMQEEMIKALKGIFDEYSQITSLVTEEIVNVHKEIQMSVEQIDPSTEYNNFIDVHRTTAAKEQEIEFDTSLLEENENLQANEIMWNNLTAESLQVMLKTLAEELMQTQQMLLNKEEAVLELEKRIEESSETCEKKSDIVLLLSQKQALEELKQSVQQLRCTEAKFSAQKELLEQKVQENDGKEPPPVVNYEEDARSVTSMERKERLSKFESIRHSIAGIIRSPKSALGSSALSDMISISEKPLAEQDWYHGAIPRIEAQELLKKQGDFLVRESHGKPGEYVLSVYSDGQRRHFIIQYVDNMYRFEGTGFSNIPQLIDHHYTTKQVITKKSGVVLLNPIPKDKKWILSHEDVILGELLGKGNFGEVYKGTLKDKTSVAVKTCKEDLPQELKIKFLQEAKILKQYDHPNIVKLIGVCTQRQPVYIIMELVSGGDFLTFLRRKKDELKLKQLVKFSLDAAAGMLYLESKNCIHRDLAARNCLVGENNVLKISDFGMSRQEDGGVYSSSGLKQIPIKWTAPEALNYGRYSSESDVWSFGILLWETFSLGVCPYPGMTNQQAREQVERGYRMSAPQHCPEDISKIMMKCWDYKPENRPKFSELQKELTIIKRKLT
Sequence of protein kinases of the Z-LYTE panel (Homo sapiens, UniProt P00533) (P00533 25-1210): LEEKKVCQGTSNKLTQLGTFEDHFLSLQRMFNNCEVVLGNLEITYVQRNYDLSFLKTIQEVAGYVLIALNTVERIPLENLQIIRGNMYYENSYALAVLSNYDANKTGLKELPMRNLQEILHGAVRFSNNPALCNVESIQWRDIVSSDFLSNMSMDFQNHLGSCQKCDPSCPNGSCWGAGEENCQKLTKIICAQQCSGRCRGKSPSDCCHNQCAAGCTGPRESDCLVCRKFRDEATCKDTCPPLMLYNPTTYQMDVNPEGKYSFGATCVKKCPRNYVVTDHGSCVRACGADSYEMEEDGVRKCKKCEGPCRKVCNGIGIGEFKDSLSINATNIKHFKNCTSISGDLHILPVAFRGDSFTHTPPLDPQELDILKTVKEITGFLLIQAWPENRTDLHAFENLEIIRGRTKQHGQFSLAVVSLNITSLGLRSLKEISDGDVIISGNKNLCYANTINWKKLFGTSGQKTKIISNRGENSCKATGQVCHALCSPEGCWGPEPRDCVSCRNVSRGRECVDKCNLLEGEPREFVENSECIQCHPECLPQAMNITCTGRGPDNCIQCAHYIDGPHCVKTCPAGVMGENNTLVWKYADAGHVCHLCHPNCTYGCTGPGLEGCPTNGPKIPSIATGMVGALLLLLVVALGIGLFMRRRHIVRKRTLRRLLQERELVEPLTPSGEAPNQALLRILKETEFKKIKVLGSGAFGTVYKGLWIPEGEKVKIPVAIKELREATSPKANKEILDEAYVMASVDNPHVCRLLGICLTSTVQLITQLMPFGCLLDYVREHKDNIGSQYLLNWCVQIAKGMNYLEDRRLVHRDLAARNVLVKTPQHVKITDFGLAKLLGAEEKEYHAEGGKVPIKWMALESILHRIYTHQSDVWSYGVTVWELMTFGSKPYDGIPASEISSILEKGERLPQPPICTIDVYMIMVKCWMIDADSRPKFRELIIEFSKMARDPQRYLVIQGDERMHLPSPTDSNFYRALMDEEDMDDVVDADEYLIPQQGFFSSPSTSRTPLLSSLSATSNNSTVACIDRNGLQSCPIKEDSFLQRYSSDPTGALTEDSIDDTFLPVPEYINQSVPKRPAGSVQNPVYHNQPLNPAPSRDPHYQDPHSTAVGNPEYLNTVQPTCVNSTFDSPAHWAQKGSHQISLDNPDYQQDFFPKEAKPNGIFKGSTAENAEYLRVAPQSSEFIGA
Sequence of protein kinases of the Z-LYTE panel (Homo sapiens, UniProt P31751) (P31751 whole entry): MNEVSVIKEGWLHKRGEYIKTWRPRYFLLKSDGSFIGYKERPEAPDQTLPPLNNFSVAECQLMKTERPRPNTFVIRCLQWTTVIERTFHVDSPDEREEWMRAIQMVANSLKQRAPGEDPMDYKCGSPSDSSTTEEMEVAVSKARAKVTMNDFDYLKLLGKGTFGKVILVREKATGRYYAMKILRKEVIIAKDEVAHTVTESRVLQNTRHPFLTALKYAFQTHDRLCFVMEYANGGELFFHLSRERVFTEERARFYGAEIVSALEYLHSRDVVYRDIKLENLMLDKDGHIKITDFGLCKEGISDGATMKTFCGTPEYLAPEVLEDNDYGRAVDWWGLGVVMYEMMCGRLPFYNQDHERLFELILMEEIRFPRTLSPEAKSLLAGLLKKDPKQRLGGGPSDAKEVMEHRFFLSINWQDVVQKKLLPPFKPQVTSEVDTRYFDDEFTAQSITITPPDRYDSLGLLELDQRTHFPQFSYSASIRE
Sequence of protein kinases of the Z-LYTE panel (Homo sapiens, UniProt Q9P1W9) (Q9P1W9 whole entry): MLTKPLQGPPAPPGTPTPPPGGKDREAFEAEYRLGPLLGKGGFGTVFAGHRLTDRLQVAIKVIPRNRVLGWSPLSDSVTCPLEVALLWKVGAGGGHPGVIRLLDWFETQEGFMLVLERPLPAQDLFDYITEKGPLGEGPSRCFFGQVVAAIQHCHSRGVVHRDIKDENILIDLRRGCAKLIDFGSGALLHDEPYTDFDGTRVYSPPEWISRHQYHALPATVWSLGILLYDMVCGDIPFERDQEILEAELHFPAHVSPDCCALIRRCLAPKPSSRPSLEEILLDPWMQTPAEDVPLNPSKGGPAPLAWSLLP

Structure (SMILES): CCN1CCN(c2ccc(Nc3cc(Nc4cccc5c4N(C(C)=O)CC5)ccn3)cc2)CC1 [Compound 1938]
- inhibition at 1 µM ([1]; read-out: % Inhibition Point 1): 18%
- inhibition at 1 µM ([1]; read-out: % Inhibition Point 2): 17%
- inhibition at 1 µM ([1]; read-out: % Inhibition mean): 18%
- inhibition at 1 µM ([2]; read-out: % Inhibition Point 1): 9.47%
- inhibition at 1 µM ([2]; read-out: % Inhibition Point 2): 10%
- inhibition at 1 µM ([2]; read-out: % Inhibition mean): 10%
- inhibition at 1 µM ([3]; read-out: % Inhibition Point 1): 4.46%
- inhibition at 1 µM ([3]; read-out: % Inhibition Point 2): 3.55%
- inhibition at 1 µM ([3]; read-out: % Inhibition mean): 4%
- inhibition at 1 µM ([4]; read-out: % Inhibition Point 1): 2%
- inhibition at 1 µM ([4]; read-out: % Inhibition Point 2): -3.79%
- inhibition at 1 µM ([4]; read-out: % Inhibition mean): -0.889%
- inhibition at 1 µM ([5]; read-out: % Inhibition Point 1): 2%
- inhibition at 1 µM ([5]; read-out: % Inhibition Point 2): 0.0719%
- inhibition at 1 µM ([5]; read-out: % Inhibition mean): 1%
- inhibition at 1 µM ([6]; read-out: % Inhibition Point 1): -3.66%
- inhibition at 1 µM ([6]; read-out: % Inhibition Point 2): -2.5%
- inhibition at 1 µM ([6]; read-out: % Inhibition mean): -3%
- inhibition at 1 µM ([7]; read-out: % Inhibition Point 1): 16%
- inhibition at 1 µM ([7]; read-out: % Inhibition Point 2): 17%
- inhibition at 1 µM ([7]; read-out: % Inhibition mean): 16%
- inhibition at 1 µM ([8]; read-out: % Inhibition Point 1): -5.31%
- inhibition at 1 µM ([8]; read-out: % Inhibition Point 2): -2.44%
- inhibition at 1 µM ([8]; read-out: % Inhibition mean): -4%
- inhibition at 1 µM ([9]; read-out: % Inhibition Point 1): 1.56%
- inhibition at 1 µM ([9]; read-out: % Inhibition Point 2): 1.35%
- inhibition at 1 µM ([9]; read-out: % Inhibition mean): 1.46%
- inhibition at 1 µM ([10]; read-out: % Inhibition Point 1): 0.378%
- inhibition at 1 µM ([10]; read-out: % Inhibition Point 2): 0.753%
- inhibition at 1 µM ([10]; read-out: % Inhibition mean): 0.565%
- inhibition at 1 µM ([11]; read-out: % Inhibition Point 1): 28%
- inhibition at 1 µM ([11]; read-out: % Inhibition Point 2): 31%
- inhibition at 1 µM ([11]; read-out: % Inhibition mean): 30%
